In patent US6171866A, “Luminescence indicator for determining calcium ions” (AVL Medical Instruments, priority 1998, dated 2001):

Test: Determination of the Kd values of ionophores from UV-absorption Ca^2+ titration curves
Assay type: binding
Conditions: aqueous solution, 30 mmol/l tris/HCl buffer, CO2-free, pH 7.4; absorption at 248 nm; 0.00001 to 0.5 mol/l Ca^2+; calculated from found pKd
Experimental: wherein, at a given ionic strength and temperature, the dissociation constant (Kd) is given by Equation 2, [formula]
The PKd value (Equation 3) is the negative common logarithm of the dissociation constant:
The absorption values in dependence on the Ca^2+ concentration were measured using a commercial photometer, at an absorption wavelength of 248 nm. The resulting titration curves were normalized to the value Amax =1 at a Ca^2+ concentration of 0.00001 mol/l using Equation 4 (see below).
The Kd values of the ionophores were determined from the measured absorption values of the Ca^2+ -titration curves according to Equation 3 (see above) and Equation 4 [formula]
wherein Ax is the normalized absorption value at the given Ca^2+ concentration, Amax is the absorption value at 0.00001 mol/l Ca^2+ and pKd has the meaning indicated in Equation 3.
They were determined from the found pKd values by means of Equation 3.

| SMILES | Kd [µM] |
| --- | --- |
| CCCCN(CCN(CC(=O)O)CC(=O)O)c1ccccc1OC [Ionophore X4, Potassium N-[2-(N'-butyl-N'-(2-methoxyphenyl)aminoethyl)]-imino-N,N-diacetate] | 9140 |
| COc1ccccc1N(CCOc1ccccc1)CCN(CC(=O)O)CC(=O)O [Ionophore X5, Potassium N-[2-(N'-phenoxyethyl-N'-(2-methoxyphenyl)aminoethyl)]-imino-N,N-diacetate] | 6960 |
| COCCN(CCN(CC(=O)O)CC(=O)O)c1ccccc1OC [Ionophore X2, Potassium N-[2-(N'-methoxyethyl-N'-(2-methoxyphenyl)aminoethyl)]-imino-N,N-diacetate] | 330 |
| CCOCCN(CCN(CC(=O)O)CC(=O)O)c1ccccc1OC [Ionophore X3, Potassium N-[2-(N'-ethoxyethyl-N'-(2-methoxyphenyl)aminoethyl)]-imino-N,N-diacetate] | 1040 |
| COc1ccccc1N(CCOCC(=O)O)CCOCC(=O)O [Ionophore X6, Potassium-o-anisidine-N,N-diethoxyacetate] | 200 |

Second part, the compound after the results:

| Kd [µM] | SMILES |
| --- | --- |
| 6160 | COCCN(CCOC)c1ccccc1OCCN(CC(=O)O)CC(=O)O [Ionophore X9, Potassium N-[2-(N',N'-dimethoxyethyl)aminophenoxyethyl]imino-N,N-diacetate] |
| 720 | COc1ccc(Cl)cc1N(CCOCC(=O)O)CCOCC(=O)O [Ionophore X8, Potassium 5-chloro-o-anisidine-N,N-diethoxyacetate] |
| 1090 | CCOc1ccccc1N(CCOCC(=O)O)CCOCC(=O)O [Ionophore X7, Potassium o-phenetidine-N,N-diethoxyacetate] |
